What was measured:
[1] = biological target: Cholinesterase (Equus caballus) (UniProt P81908); assay: Inhibition of equine BChE at 100 uM using acetylthiocholine chloride as substrate preincubated for 15 mins followed by substrate addition and measured after 30 mins by DTNB reagent based Ellman's method relative to control; details: time 45.0 min
[2] = biological target: T1, D(3) dopamine receptor (Homo sapiens, UniProt P35462); assay: Inhibition of human D3 receptor expressed in CHO cells at 10 uM by scintillation counting method relative to control; type: cell-based
T1 sequence (P35462 whole entry): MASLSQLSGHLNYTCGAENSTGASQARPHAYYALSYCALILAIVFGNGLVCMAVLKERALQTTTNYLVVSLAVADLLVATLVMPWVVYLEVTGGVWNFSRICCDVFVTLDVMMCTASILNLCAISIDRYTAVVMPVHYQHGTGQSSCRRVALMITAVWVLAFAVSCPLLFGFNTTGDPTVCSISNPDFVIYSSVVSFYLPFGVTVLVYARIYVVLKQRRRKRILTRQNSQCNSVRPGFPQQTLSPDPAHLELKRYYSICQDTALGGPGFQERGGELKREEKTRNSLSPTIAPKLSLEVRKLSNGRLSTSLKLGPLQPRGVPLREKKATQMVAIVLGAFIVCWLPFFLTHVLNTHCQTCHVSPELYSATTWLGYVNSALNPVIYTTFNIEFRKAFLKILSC

[3] = biological target: T2, Histamine H3 receptor (Homo sapiens, UniProt Q9Y5N1); assay: Binding affinity to human H3 receptor assessed as inhibition constant incubated for 90 mins by scintillation counting method
T2 sequence (Q9Y5N1 whole entry): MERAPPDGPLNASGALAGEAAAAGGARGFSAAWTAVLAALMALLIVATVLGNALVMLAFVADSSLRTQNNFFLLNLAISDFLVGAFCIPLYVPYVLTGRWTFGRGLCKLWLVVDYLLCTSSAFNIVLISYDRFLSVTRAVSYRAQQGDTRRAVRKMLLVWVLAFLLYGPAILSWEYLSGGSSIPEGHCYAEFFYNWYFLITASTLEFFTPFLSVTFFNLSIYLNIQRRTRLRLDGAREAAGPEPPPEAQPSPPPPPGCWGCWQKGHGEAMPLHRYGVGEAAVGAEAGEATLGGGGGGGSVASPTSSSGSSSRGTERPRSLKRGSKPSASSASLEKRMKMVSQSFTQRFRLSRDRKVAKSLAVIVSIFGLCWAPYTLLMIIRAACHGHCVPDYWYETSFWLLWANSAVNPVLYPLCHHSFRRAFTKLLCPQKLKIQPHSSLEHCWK

[4] = biological target: T1, D(3) dopamine receptor; assay: Binding affinity to human D3 receptor expressed in CHO cells assessed as inhibition constant by scintillation counting method; type: cell-based
[5] = biological target: T2, Histamine H3 receptor; assay: Inhibition of human H3 receptor at 10 uM incubated for 90 mins by scintillation counting method relative to control
[6] = biological target: Cholinesterase (Equus caballus, UniProt P81908); assay: Inhibition of equine BChE using acetylthiocholine chloride as substrate preincubated for 15 mins followed by substrate addition and measured after 30 mins by DTNB reagent based Ellman's method
Chain of Cholinesterase (P81908 whole entry): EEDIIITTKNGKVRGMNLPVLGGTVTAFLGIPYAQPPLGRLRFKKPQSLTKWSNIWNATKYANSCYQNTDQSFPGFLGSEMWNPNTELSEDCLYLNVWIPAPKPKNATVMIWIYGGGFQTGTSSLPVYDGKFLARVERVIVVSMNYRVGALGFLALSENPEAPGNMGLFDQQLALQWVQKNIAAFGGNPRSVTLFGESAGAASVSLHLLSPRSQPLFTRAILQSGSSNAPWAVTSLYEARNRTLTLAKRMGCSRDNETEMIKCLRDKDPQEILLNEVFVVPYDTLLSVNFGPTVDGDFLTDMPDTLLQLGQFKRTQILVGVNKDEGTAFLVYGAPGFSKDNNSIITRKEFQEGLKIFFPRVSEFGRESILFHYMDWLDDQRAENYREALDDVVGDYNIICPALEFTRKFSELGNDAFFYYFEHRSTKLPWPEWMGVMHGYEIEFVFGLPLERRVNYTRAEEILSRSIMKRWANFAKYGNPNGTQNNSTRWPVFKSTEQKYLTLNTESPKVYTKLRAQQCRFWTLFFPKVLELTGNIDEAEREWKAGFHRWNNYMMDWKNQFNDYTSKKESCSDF

[7] = biological target: T2, Histamine H3 receptor; assay: Inhibition of human H3 receptor incubated for 90 mins by scintillation counting method relative to control
[8] = biological target: T1, D(3) dopamine receptor; assay: Inhibition of human D3 receptor expressed in CHO cells at 1 uM by scintillation counting method relative to control; type: cell-based
[9] = biological target: T2, Histamine H3 receptor; assay: Inhibition of human H3 receptor at 1 uM incubated for 90 mins by scintillation counting method relative to control
[10] = biological target: Acetylcholinesterase (Electrophorus electricus, UniProt O42275); assay: Inhibition of electrical eel AChE using acetylthiocholine chloride as substrate preincubated for 15 mins followed by substrate addition and measured after 30 mins by DTNB reagent based Ellman's method
Chain of Acetylcholinesterase (O42275 whole entry): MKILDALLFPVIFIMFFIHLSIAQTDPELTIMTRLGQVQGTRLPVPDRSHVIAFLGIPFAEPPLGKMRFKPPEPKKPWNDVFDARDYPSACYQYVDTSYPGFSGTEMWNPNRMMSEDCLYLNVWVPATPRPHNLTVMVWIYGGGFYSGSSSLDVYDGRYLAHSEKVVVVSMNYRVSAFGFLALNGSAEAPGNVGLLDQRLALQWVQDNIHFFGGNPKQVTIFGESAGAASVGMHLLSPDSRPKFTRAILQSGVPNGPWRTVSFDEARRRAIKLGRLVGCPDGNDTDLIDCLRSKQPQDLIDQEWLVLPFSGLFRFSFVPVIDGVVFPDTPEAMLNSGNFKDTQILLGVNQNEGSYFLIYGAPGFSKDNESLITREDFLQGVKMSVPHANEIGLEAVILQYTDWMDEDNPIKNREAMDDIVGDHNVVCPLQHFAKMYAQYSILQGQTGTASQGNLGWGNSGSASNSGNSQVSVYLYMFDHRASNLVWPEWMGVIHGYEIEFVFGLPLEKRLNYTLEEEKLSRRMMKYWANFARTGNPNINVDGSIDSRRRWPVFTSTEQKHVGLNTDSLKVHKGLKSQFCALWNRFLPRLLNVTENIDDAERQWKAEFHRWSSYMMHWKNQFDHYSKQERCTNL

[11] = biological target: T1, D(3) dopamine receptor; assay: Inhibition of human D3 receptor expressed in CHO cells assessed as inhibition constant by scintillation counting method; type: cell-based

Chain of Cholinesterase (Equus caballus) (P81908 whole entry): as the sequence (P81908 whole entry) above

SMILES	inhibition [1]	inhibition [2]	Ki [3]	Ki [4]	inhibition [5]	IC50 [6]	other results
CN1CCN(CCOC(=O)c2ccc3ccccc3c2)CC1	74.8%	53.7%	2.2 µM	> 0.01 µM	78.2%	57.5 µM	
O=C(OCCN1CCN(c2ccccc2)CC1)c1cccc2ccccc12	24.1%	52.8%			71.3%		
CN1CCN(CCCOC(=O)c2cccc3ccccc23)CC1	50.6%	71.5%	3.7 µM	> 0.01 µM	83.8%		
CN1CCN(CCCOc2cccc3ccccc23)CC1	60.2%	47.8%			70%	78.5 µM	
Clc1ccc(CCCOCCCN2CCCCC2)cc1							inhibition [7]: 99.8%
c1ccc(N2CCN(CCCOc3ccc4ccccc4c3)CC2)cc1	65.7%		> 10 µM	0.00034 µM		53.7 µM	inhibition [8]: 80.5%; inhibition [9]: 36.8%
CN1CCN(CCCOC(=O)c2ccc3ccccc3c2)CC1	85.1%	77.7%	1.1 µM	0.0031 µM	96.3%	43.7 µM	IC50 [10]: 97.8 µM
CN1CCN(CCCOc2ccc3ccccc3c2)CC1	70%	22.8%	2.8 µM	0.0007 µM	80.5%	26.3 µM	
CN1CCN(CCOc2ccc3ccccc3c2)CC1	48.4%	15.2%			39.3%		
O=C(OCCCN1CCN(c2ccccc2)CC1)c1ccc2ccccc2c1	16.6%	65.3%			40.8%		
CN(C)C(=O)Oc1cccc([N+](C)(C)C)c1 [NEOSTIGMINE]	> 95%					0.16 µM	
O=C(OCCN1CCN(c2ccccc2)CC1)c1ccc2ccccc2c1	36.5%	32.8%			61.5%		
CC(C)N1CCN(CCCCOc2ccc3c(c2)NC(=O)CC3)CC1						16.7 µM	IC50 [10]: 1.6 µM
O=C(NCCCCN1CCN(c2ccccc2)CC1)c1ccc2ccccc2c1							Ki [11]: 0.00092 µM
c1ccc2c(OCCN3CCN(c4ccncc4)CC3)cccc2c1	65.4%					40.7 µM	inhibition [8]: 37.7%; IC50 [10]: 53.7 µM; inhibition [9]: 54%
c1ccc(N2CCN(CCOc3ccc4ccccc4c3)CC2)cc1	17.5%						inhibition [8]: 45%; inhibition [9]: 23.3%
CN1CCN(CCOc2cccc3ccccc23)CC1	64.9%	33.5%			21.3%	58.9 µM	
O=C(OCCCN1CCN(c2ccccc2)CC1)c1cc2ccccc2o1	46.8%						
c1ccc(N2CCN(CCCOc3cccc4ccccc34)CC2)cc1	22.7%						
c1ccc(N2CCN(CCOc3cccc4ccccc34)CC2)cc1	26%	34.5%			39.8%		
O=C(NCCCN1CCN(c2ccncc2)CC1)c1cc2ccccc2o1	54.5%		0.91 µM	> 0.01 µM		85.1 µM	inhibition [8]: 23.5%; inhibition [9]: 80.5%
O=C(OCCCN1CCN(c2ccccc2)CC1)c1cccc2ccccc12	< 10%						
CN1CCN(CCOC(=O)c2cccc3ccccc23)CC1	38.3%	49.7%			69%		
O=C(OCCCN1CCN(c2ccncc2)CC1)c1cc2ccccc2o1	49.9%		0.27 µM	> 0.01 µM		97.7 µM	inhibition [8]: 18%; IC50 [10]: 57.2 µM; inhibition [9]: 88.8%
CN1CCN(CCCOC(=O)c2cc3ccccc3o2)CC1	31.7%	9%	3.3 µM	> 0.01 µM	82.3%		
